From patent US20250367129A1, “Lipid Compounds and Uses Thereof” (Pfizer Inc., priority 2022, published 2025)

Legend:
HEK293F cells = experiment: In vitro expression of novel ionizable lipid nanoparticles, high content imaging (CA HA modFlu mRNA); format: cell-based; conditions: LNP with CA HA modFlu mRNA
Procedure, shortened: (§1)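 Lipid nanoparticles of ionizable lipid, cholesterol, DSPC and ALC-0159 (about 46.3:42.7:9.4:1.6 molar), N:P about 6:1, carrying mRNA, dosed onto cells overnight at 37° C., 5% CO2. Cells fixed and stained with Hoechst plus antibody to encoded protein; nuclei and antigen-positive cells counted by high-content imaging.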

Hela cells [1] = experiment: as above; format: cell-based; conditions: LNP with CA HA modFlu mRNA
Procedure, shortened: as §1

[2] = Encapsulation efficiency, RiboGreen RNA quantitation assay (CA HA modFlu mRNA LNPs); format: physicochemical; conditions: LNP with CA HA modFlu mRNA
Procedure, shortened: (§2)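 LNPs of ionizable lipid:cholesterol:DSPC:ALC-0159 (molar ratio about 46.3:42.7:9.4:1.6) formed by syringe-pump mixing of ethanolic lipids with mRNA at N:P about 6:1, then dialysed into buffer (e.g., Tris) and filtered. Size and PDI measured by DLS; total RNA and encapsulation efficiency by RiboGreen.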

[3] = LNP size and size distribution by dynamic light scattering (WISC HA modFlu mRNA LNPs); format: physicochemical; conditions: DLS; for Size (nm): LNP of the ionizable lipid:cholesterol:DSPC:PEG-Lipid about 46.3:42.7:9.4:1.6 with WISC HA modFlu mRNA; for PDI: LNP with WISC HA modFlu mRNA
Experimental: (§3) Lipid nanoparticles were prepared and tested according to the general procedures described in U.S. Pat. No. 9,737,619 (PCT Pub. No. WO2015/199952) and U.S. Pat. No. 10,166,298 (PCT Pub. No. WO 2017/075531) and PCT Pub. No. WO2020/146805. The novel ionizable lipids of the invention, cholesterol, DSPC and PEG-Lipid were solubilized in Ethanol at a molar ratio of about 46.3:42.7:9.4:1.6. Lipid nanoparticles (LNP) were prepared at a total lipid to mRNA ratio of about 23:1. In short, the mRNA (WISC HA modFlu) was diluted in buffer. Syringe pumps were used to mix the lipid solution with the mRNA solution. The ethanol was removed, and external buffer replaced with another buffer (e.g., Tris) by dialysis. Finally, the lipid nanoparticle size and size distribution were determined by dynamic light scattering using an Unchained Labs Stunner (Unchained Labs, USA). RNA encapsulation efficiency was determined using the Quant-iT RiboGreen RNA assay (Life Technologies, USA). Briefly, LNPs were incubated with RiboGreen dye (200-fold dilution per manufactures' instruction) in the presence and absence of 1% Triton-X 100 and fluorescence intensities (Excitation/Emission: 485/528 […]) were measured for unencapsulated RNA and total RNA after release from LNPs by Triton-X 100.

Hek293T cells = experiment: In vitro expression of encoded gene of interest after LNP dosing, high content imaging (WISC HA modFlu mRNA); format: cell-based; conditions: LNP with WISC HA modFlu mRNA, overnight incubation
Experimental: as §3
(§4) Plated Hek293T or Hela cells were dosed with lipid nanoparticles in a total volume of 40 μl cell culture media and incubated overnight at 37° C. and 5% CO2. After fixation with 4% paraformaldehyde in PBS cells were washed in PBS containing 0.3% Triton-X100 and 3% BSA (w/v), followed by nuclear staining with Hoechst and antibody staining for the encoded gene of interest. Nuclear count and identification of cells stained positive for gene of interest was done on an Opera Phenix high content imager (PerkinElmer, USA).

Hela cells [4] = experiment: as above; format: cell-based; conditions: LNP with WISC HA modFlu mRNA, overnight incubation
Experimental: as §3, §4

[5] = RNA encapsulation efficiency, Quant-iT RiboGreen RNA assay (WISC HA modFlu mRNA LNPs); format: physicochemical; conditions: LNP with WISC HA modFlu mRNA
Experimental: as §3

[6] = LNP size and polydispersity index by Malvern Zetasizer dynamic light scattering (CA HA modFlu mRNA LNPs); format: physicochemical; conditions: DLS; for Size (nm): LNP of the ionizable lipid:cholesterol:DSPC:ALC-0159 about 46.3:42.7:9.4:1.6, N:P about 6:1, CA HA modFlu mRNA; for PDI: LNP with CA HA modFlu mRNA
Procedure, shortened: as §2

Row | SMILES | EC50 Hek293F (ng/well) (HEK293F cells) | EC50 Hela (ng/well) (Hela cells [1]) | EE % [2] [%] | Size (nm) [3] [nm] | PDI [3] | EC50 Hek293T (ng/well) (Hek293T cells) | EC50 Hela (ng/well) (Hela cells [4]) | EE % [5] [%] | Size (nm) [6] [nm] | PDI [6]
1 | CCCCCCCC(CCCCCCC)C(=O)OCC1(COC(=O)C(CCCCCCC)CCCCCCC)CCC2(CCN(CCCCO)CC2)CC1 [Example 1, (3-(4-hydroxybutyl)-3-azaspiro[5.5]undecane-9,9-diyl)bis(methylene) bis(2-heptylnonanoate)] | 1.7 | 1.2 | 100 | 76 | 0.04 | 13.9 | 18.3 | 99 | 78 | 0.050
2 | CCCCCCCC(CCCCCCC)C(=O)OCC(COC(=O)C(CCCCCCC)CCCCCCC)C1CCC2(CC1)CCN(CCCCO)CC2 [Example 2, 2-(3-(4-hydroxybutyl)-3-azaspiro[5.5]undecan-9-yl)propane-1,3-diyl bis(2-heptylnonanoate)] | 2.5 | 1.6 | 100 | 93 | 0.06 | 14.5 | 28.1 | 99 | 92 | 0.040
3 | CCCCCCCC(CCCCCCC)C(=O)O[C@@H]1CC2(CCN(CCCCO)CC2)C[C@H]1OC(=O)C(CCCCCCC)CCCCCCC (racemic) [Example 51, rac-(2R,3R)-8-(4-Hydroxybutyl)-8-azaspiro[4.5]decane-2,3-diyl bis(2-heptylnonanoate)] | 0.27 | 0.64 | 99 | 72 | 0.03 | 5.3 | 10.7 | 96 | 58 | 0.030
4 | CCCCCCCC(CCCCCCC)C(=O)OCC(COC(=O)C(CCCCCCC)CCCCCCC)N1CCC2(CCN(CCCCO)CC2)CC1 [Example 3, 2-(9-(4-Hydroxybutyl)-3,9-diazaspiro[5.5]undecan-3-yl)propane-1,3-diyl bis(2-heptylnonanoate)] | 2.8 | 1.7 | 100 | 152 | 0.07 | 11.9 | 18.4 | 99 | 90 | 0.040
5 | CCCCCCCCC(CCCCCC)C(=O)OCC(COC(=O)C(CCCCCC)CCCCCCCC)N1CCC2(CCN(CCCCCO)C2)CC1 (centres unmarked) [Example 17, 2-(2-(5-hydroxypentyl)-2,8-diazaspiro[4.5]decan-8-yl)propane-1,3-diyl bis(2-hexyldecanoate)] | 0.64 | 1.3 | 100 |  |  |  |  |  | 149 | 0.053
6 | CCCCCCCCC(CCCCCC)C(=O)OCC(COC(=O)C(CCCCCC)CCCCCCCC)N1CCC2(CCN(CCCCCO)C2)C1 (centres unmarked) [Example 16, 2-(7-(5-hydroxypentyl)-2,7-diazaspiro[4.4]nonan-2-yl)propane-1,3-diyl bis(2-hexyldecanoate)] | 0.11 | 0.18 | 99 |  |  |  |  |  | 134 | 0.090
7 | CCCCCCCCC(CCCCCC)C(=O)OCC(COC(=O)C(CCCCCC)CCCCCCCC)N1CCC2(CCN(C(C)CCCO)CC2)CC1 (centres unmarked) [Example 21, 2-(9-(5-hydroxypentan-2-yl)-3,9-diazaspiro[5.5]undecan-3-yl)propane-1,3-diyl bis(2-hexyldecanoate)] | 0.28 | 0.41 | 99 |  |  |  |  |  | 159 | 0.064
8 | CCCCCCCC(CCCCCCC)C(=O)O[C@@H]1CC2(CCN(CCCCO)CC2)C[C@H]1OC(=O)C(CCCCCCC)CCCCCCC (single isomer, unassigned) [Example 57, (2R*,3R*)-8-(4-hydroxybutyl)-8-azaspiro[4.5]decane-2,3-diyl bis(2-heptylnonanoate)] | 2.9 | 4.7 | 99 |  |  |  |  |  | 74 | 0.118
9 | CCCCCCCCC(CC1CCCCC1)C(=O)OCC(COC(=O)C(CCCCCCCC)CC1CCCCC1)N1CCC2(CCN(CCCCO)CC2)CC1 (centres unmarked) [Example 37, 2-(9-(4-hydroxybutyl)-3,9-diazaspiro[5.5]undecan-3-yl)propane-1,3-diyl bis(2-(cyclohexylmethyl)decanoate)] | 0.67 | 0.90 | 99 |  |  |  |  |  | 143 | 0.070
10 | CCCCCCCC(CCCCCCC)C(=O)OCC(COC(=O)C(CCCCCCC)CCCCCCC)N1CCC2(CCN(CCCCCO)CC2)CC1 [Example 25, 2-(9-(5-hydroxypentyl)-3,9-diazaspiro[5.5]undecan-3-yl)propane-1,3-diyl bis(2-heptylnonanoate)] | 0.42 | 0.61 | 99 |  |  |  |  |  | 137 | 0.040
11 | CCCCCCCCCCCCC(CCCCCCC)C(=O)OCC(COC(=O)C(CCCCCCC)CCCCCCCCCCCC)N1CCC2(CCN(CCCCO)CC2)CC1 (centres unmarked) [Example 31, 2-(9-(4-hydroxybutyl)-3,9-diazaspiro[5.5]undecan-3-yl)propane-1,3-diyl bis(2-heptyltetradecanoate)] | 1.7 | 2.9 | 99 |  |  |  |  |  | 121 | 0.150
12 | CCCCCCCCC(CCCCCC)C(=O)OCC(COC(=O)C(CCCCCC)CCCCCCCC)N1CC2(CCN(CCCCCO)CC2)C1 (centres unmarked) [Example 49, 2-(7-(5-hydroxypentyl)-2,7-diazaspiro [3.5]nonan-2-yl)propane-1,3-diyl bis(2-hexyldecanoate)] | 0.41 | 1.4 | 99 |  |  |  |  |  | 160 | 0.110
